In patent publication US11850277B2, “Treatment of lower urinary tract epithelium with glucagon like peptide 2” (URIGEN N.A., priority 2017, dated 2023):

Legend:
[1] = test system: non-tumorigenic primary human bladder epithelial cells (ATCC-PCS-420-010); assay: BrdU cell proliferation assay (BrdU incorporation into DNA); format: cell-based; conditions: cells starved 48 hours in low nutrient (0.5%) medium; for DNA synthesis as measured by BrdU incorporation: BrdU added concurrently
Procedure: FIG. 1 presents a histogram plot depicting results from a BrdU cell proliferation assay. Primary human bladder epithelial cells were nutrient starved as indicated and treated with GLP-2 for 24 hours at the indicated concentrations
FIG. 2 presents a histogram plot depicting results from a BrdU cell proliferation assay. Primary human bladder epithelial cells were nutrient starved as indicated and treated with GLP-2 for 48 hours at the indicated concentrations.
URG-801/GLP-2 mediated cell proliferation was detected by assaying BrdU incorporation into DNA using non-tumorigenic primary human bladder epithelial cells. An exemplary non-tumorigenic primary human bladder epithelial cell line is ATCC-PCS-420-010, which may be purchased from the American Type Culture Collection (ATCC) repository. Briefly, ATCC-PCS-420-010 cells were starved for 48 hours in low nutrient (0.5%) medium and then GLP-2 was added to the culture medium at the indicated concentrations and the cells were cultured for an additional 24 hours in the presence of GLP-2. As indicated in the timeline presented in FIG. 1, bromodeoxyuridine (BrdU) was added concurrently with the GLP-2.
To investigate further parameters affecting GLP-2 induced bladder epithelial cell proliferation, the duration of culturing in the presence of GLP-2 was extended. In this experimental protocol, ATCC-PCS-420-010 cells were starved for 48 hours in low nutrient (0.5%) medium and then GLP-2 was added to the culture medium at the indicated concentrations and the cells were cultured for ab additional 48 hours in the presence of GLP-2. As indicated in the timeline presented in FIG. 2, BrdU was added concurrently with the GLP-2.

GLP-2R = biological target: T1, GLP-2R (Rattus norvegicus, UniProt Q9Z0W0); conditions: iv injected radiolabeled GLP-2, autoradiography; cited from earlier work
T1 construct: host or cells: Tissues of the living animal (kidneys, liver, gastrointestinal tract and others), endogenous receptor
T1 sequence (Q9Z0W0 1-550): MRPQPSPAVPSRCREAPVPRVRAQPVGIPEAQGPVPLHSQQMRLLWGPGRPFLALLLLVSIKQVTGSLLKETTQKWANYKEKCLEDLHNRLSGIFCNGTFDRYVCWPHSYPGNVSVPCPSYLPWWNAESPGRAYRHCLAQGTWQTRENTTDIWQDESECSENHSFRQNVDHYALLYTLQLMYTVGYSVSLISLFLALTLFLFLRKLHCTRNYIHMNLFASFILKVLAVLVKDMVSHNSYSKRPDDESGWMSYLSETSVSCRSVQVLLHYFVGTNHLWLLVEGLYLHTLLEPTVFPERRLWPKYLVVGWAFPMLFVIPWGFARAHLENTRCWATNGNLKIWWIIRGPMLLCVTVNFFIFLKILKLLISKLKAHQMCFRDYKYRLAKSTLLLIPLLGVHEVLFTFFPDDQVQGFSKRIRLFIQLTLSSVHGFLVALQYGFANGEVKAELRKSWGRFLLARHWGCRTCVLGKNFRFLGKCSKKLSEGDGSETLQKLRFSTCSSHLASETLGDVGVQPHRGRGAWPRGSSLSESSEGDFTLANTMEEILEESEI

intestinal epithelium = conditions: normal and treated rat inflammatory bowel disease models and ischemic reperfusion injured mice; cited from earlier work
[2] = in vivo; cited from earlier work
[3] = phase IIB study; cited from earlier work
[4] = then cultured 48 hours with GLP-2, FIG. 2

Row | Substance | DNA synthesis as measured by BrdU incorporation ([1]; then cultured 24 hours with GLP-2, FIG. 1) | DNA synthesis as measured by BrdU incorporation [1, 4] | GLP-2 concentration at which BrdU incorporation peaked (bell shaped curve) [1, 4] [µM] | binding to submandibular gland, lung, brain, heart, adipose tissue, skeletal muscle, uterus, ovary, urinary bladder, adrenal gland, thyroid gland, or skin (GLP-2R) | tissues to which radiolabeled GLP-2 binds (GLP-2R) | effect on intestinal/mucosal mass and damage (intestinal epithelium) | half life in circulation [2] [min] | efficacy in chemotherapy-induced diarrhea [3]
1 | HADGSFSDEMNTILDNLAARDFINWLIQTKITD [GLP-2] | dose dependent increase in DNA synthesis | dose dependent increase in DNA synthesis | 0.1 | does not bind | binds predominantly to the kidneys, liver, and gastrointestinal tract | enhanced intestinal/mucosal mass and attenuated damage | 3 to 7 | –
2 | elsiglutide | – | – | – | – | – | – | – | failed to reach statistical significance
